One assay deals with NLRP3 inflammasome. The arrangement: method as in PMID 30183250. As to conditions: through activity as a potassium ionophore; cited from earlier work.
A further assay relates to Gram negative bacteria. The note with it: cited from earlier work.
The next assay deals with Gram positive bacteria. The note with it: cited from earlier work.
A further assay deals with rodent malaria. Details: method as in PMID 994322. As to conditions: cited from earlier work.
The subject of a further assay is poultry coccidiosis. Details: method as in earlier work. The note with it: cited from earlier work.
A further assay has as its system Plasmodium falciparum. Kind of assay: P. falciparum-infected erythrocyte proliferation, SYBR green incorporation. As to conditions: infected erythrocytes, 72 hours; read-out: EC50 against P. falciparum. It is filed as cell-based. From the text: The maintenance of Plasmodium falciparum cultures and conducting of in vitro inhibitor response assays have been previously described.

For assay [1], the system named is hypoxia-inducible factor-1 transcription. The arrangement: method as in PMID 17256467. The note with it: under hypoxic conditions; cited from earlier work.

As usually defined, the EC50 is the concentration giving half of the maximal effect.

Take `C[C@@H]1C(=O)C[C@@H](O)CC/C=C\C=C\CC[C@H](C)OC(=O)[C@@H]2O[B-]34O[C@@H](C(=O)O[C@@H](C)CC/C=C\C=C\CC[C@H](O)CC(=O)[C@@H](C)[C@@H]5CC[C@@H](C)[C@]2(O5)O3)[C@@]2(O[C@H]1CC[C@H]2C)O4.[Na+]` [Tartrolon B]: the “Activation of the NLRP3 inflammasome” value in the assay on NLRP3 inflammasome is “activate the NLRP3 inflammasome”. For the same molecule, in the assay on Gram negative bacteria, the “Activity against Gram negative bacteria” value was “not Gram negative bacteria”. Besides, the “Activity against Gram positive bacteria” value in the assay on Gram positive bacteria is “activity against Gram positive”.

As to `C[C@@H]1CC[C@@H]2O[C@]13O[B-]14O[C@H]3C(=O)O[C@H]3C[C@@H](/C=C/C[C@@H](O)C(C)(C)[C@@H]5CC[C@@H](C)[C@](O5)(O1)[C@@H](O4)C(=O)O[C@H]1C[C@@H](/C=C/C[C@@H](O)C2(C)C)O[C@@H]1C)O[C@@H]3C.[Na+]` [aplasmomycin], in the assay with rodent malaria, the “In vivo activity against rodent malaria” value was “active in vivo”.

Regarding `CC(C)[C@@H](N)C(=O)O[C@H](C)[C@@H]1C/C=C\CC[C@H](O)C(C)(C)[C@@H]2CC[C@@H](C)[C@@]3(O2)O[B-]24O[C@@H](C(=O)O1)[C@]1(O[C@@H](CC[C@H]1C)C(C)(C)[C@H](O)CCC[C@@H]1C[C@H](OC(=O)[C@@H]3O2)[C@@H](C)O1)O4.[H+]` [boromycin], the “In vivo activity against poultry coccidiosis” value with poultry coccidiosis is recorded as “active in vivo”.

On to `C[C@@H]1C(=O)C[C@@H](O)CC/C=C/C=C\CC[C@H](C)OC(=O)C(O)[C@]2(O)O[C@@H](CC[C@H]2C)[C@H](C)C(=O)C[C@@H](O)CC/C=C/C=C\CC[C@H](C)OC(=O)C(O)[C@]2(O)O[C@H]1CC[C@H]2C` (stereo partly drawn) [Tartrolon A], for which, in the assay on Gram negative bacteria, the “Activity against Gram negative bacteria” value is “not Gram negative bacteria”. Further, in the assay on Gram positive bacteria, the “Activity against Gram positive bacteria” value is recorded as “activity against Gram positive”.

For `C[C@H]1[C@@H](O)O[C@@H]2O[C@@]3(C)CC[C@H]4[C@H](C)CC[C@@H]1[C@@]24OO3` [DHA, dihydroartemesinin, reference compound], the EC50 in the assay on Plasmodium falciparum came to 0.02 nM.

`C[C@@H]1C(=O)C[C@@H](O)CC/C=C/C=C\CC[C@H](C)OC(=O)[C@@H]2O[B-]34O[C@@H](C(=O)O[C@@H](C)CC/C=C\C=C\CC[C@H](O)CC(=O)[C@@H](C)[C@@H]5CC[C@](C)(O)[C@]2(O5)O3)[C@@]2(O[C@H]1CC[C@]2(C)O)O4` [Tartrolon C]: the “Inhibition of hypoxia-inducible factor-1 transcription” value in assay [1] was “inhibit hypoxia-inducible factor-1 transcription”.

The values are drawn from publication PMC7274485, “A symbiotic bacterium of shipworms produces a compound with broad spectrum anti-apicomplexan activity” (PLoS Pathogens, 2020).
